Measured values: article PMC11063903, “Engineering a human P2X2 receptor with altered ligand selectivity in yeast” (The Journal of Biological Chemistry, 2024)

Key:
P2X2 G353R = biological target: T1, P2X2 G353R (Homo sapiens, UniProt Q9UBL9, G353R); assay: Site-saturation screen, fast kinetic assay in yeast, G353R; type: cell-based; conditions: 500 μM ATP, ΔF/ΔT normalized to WT
T1 construct: expressed in transfected cells; host or cells: S. cerevisiae BY4741 background
Description: (§1) Figure 2 P2X2 SNP testing.A, homology model of P2X2 with the clinically implicated SNPs highlighted. V60 is highlighted in magenta and G353 is highlighted in dark blue. Lines indicate the positions of the mutations on each of the three monomers. B, zoomed view of the transmembrane region from the purple box in (A). V60 is magenta and G353 is dark blue. The structure is rotated 60° on the right image. C, screening data from site-saturation of the V60 residue in saturating ATP concentration (500 μM f.c.) using the fast kinetic assay. Signal onset values (ΔF/ΔT) are normalized to values from the WT receptor. […] Each of 2 to 3 replicates is represented as a single point. […]
(§2) GCaMP assays were performed as follows. […] Cells were loaded onto a black, clear bottom microplate and imaged on a FlexStation3 plate reader. […] Fluorescence was measured with an excitation at 485 nm, and emission 525 nm. […] For strains with mScarlet, fluorescence was read with excitation 570 nm/emission 610 nm. Slopes were calculated from the last 6 points of measurement and were normalized to the positive control samples. Any replicate in which the mScarlet value was measured to be over 2 standard deviations less than the mean for that set was discarded from further analysis.

P2X2 F301 mutants = assay: Site-saturation screen of ligand-binding domain with ATP, F301 mutants; type: cell-based, human; conditions: 500 μM ATP
Description: (§3) The yeast P2X2 screening platform poses an opportunity to probe the structure-function of the ligand-binding domain in detail. The conserved P2X “NFR” motif at residues 300 to 302 is directly involved in bonding to the ATP triphosphate moiety ([41]), so we mutagenized residues at or near this motif (298–304), ultimately covering 133 variants (7 sites, 19 residues each). […] We compared our results to phylogenetic data based on a multiple sequence alignment (MSA) from a curated set of 419 related P2X homologs (Figs. 3B, and S5; Table S1).
(§4) Figure 3 Structure-function analysis of the ligand binding domain.A, heat map summarizing the screening data of ATP with seven site-saturation libraries surrounding the NFR-motif. B, sequence-logo plot of the mutagenized residues and percent identity scores as determined from MSA. C, homology model of P2X2 colored by sequence conservation as calculated from a multiple sequence alignment of 419 related P2X genes. Conservation is scored on a log scale where maroon is more conserved and blue is less conserved. D, ATP in the ligand-binding pocket of P2X2. […]
(§5) GCaMP assays were performed as follows. […] Cells were loaded onto a black, clear bottom microplate and imaged on a FlexStation3 plate reader. […] Fluorescence was measured with an excitation at 485 nm, and emission 525 nm. […] For strains with mScarlet, fluorescence was read with excitation 570 nm/emission 610 nm. […]

P2X2 A304F = biological target: T2, P2X2 A304F (Homo sapiens, UniProt Q9UBL9, A304F); assay: Site-saturation screen of ligand-binding domain with ATP, A304F; type: cell-based; conditions: 500 μM ATP, ± sd
T2 construct: expressed in transfected cells; host or cells: Saccharomyces cerevisiae BY4741 derivative, genome-integrated, galactose-inducible
Description: as §3, §4, §5

P2X2 F303L = biological target: T3, P2X2 F303L (Homo sapiens, UniProt Q9UBL9, F303L); assay: Site-saturation screen of ligand-binding domain with ATP, F303L; type: cell-based; conditions: 500 μM ATP, ± sd
T3 construct: expressed in transfected cells; host or cells: Saccharomyces cerevisiae BY4741 derivative, genome-integrated, galactose-inducible
Description: as §3, §4, §5

[1] = biological target: T4, P2X2 G353 serine substitution (G353S) (Homo sapiens, UniProt Q9UBL9, G353S); assay: Site-saturation screen, fast kinetic assay in yeast, G353 serine; type: cell-based; conditions: 500 μM ATP, ΔF/ΔT normalized to WT
T4 construct: expressed in transfected cells; host or cells: S. cerevisiae BY4741 background
Description: as §1, §2

P2X2 A304H = biological target: T5, P2X2 A304H (Homo sapiens, UniProt Q9UBL9, A304H); assay: Site-saturation screen of ligand-binding domain with ATP, A304H; type: cell-based; conditions: 500 μM ATP, ± sd
T5 construct: expressed in transfected cells; host or cells: Saccharomyces cerevisiae BY4741 derivative, genome-integrated, galactose-inducible
Description: as §3, §4, §5

P2X2 F303Y = biological target: T6, P2X2 F303Y (Homo sapiens, UniProt Q9UBL9, F303Y); assay: Fast GCaMP-mScarletI assay in yeast, P2X2 F303Y; type: cell-based; conditions: site-saturation screen, 500 μM ATP, ± sd
T6 construct: expressed in transfected cells; host or cells: S. cerevisiae BY4741 background
T6 sequence (Q9UBL9 1-471 F303Y): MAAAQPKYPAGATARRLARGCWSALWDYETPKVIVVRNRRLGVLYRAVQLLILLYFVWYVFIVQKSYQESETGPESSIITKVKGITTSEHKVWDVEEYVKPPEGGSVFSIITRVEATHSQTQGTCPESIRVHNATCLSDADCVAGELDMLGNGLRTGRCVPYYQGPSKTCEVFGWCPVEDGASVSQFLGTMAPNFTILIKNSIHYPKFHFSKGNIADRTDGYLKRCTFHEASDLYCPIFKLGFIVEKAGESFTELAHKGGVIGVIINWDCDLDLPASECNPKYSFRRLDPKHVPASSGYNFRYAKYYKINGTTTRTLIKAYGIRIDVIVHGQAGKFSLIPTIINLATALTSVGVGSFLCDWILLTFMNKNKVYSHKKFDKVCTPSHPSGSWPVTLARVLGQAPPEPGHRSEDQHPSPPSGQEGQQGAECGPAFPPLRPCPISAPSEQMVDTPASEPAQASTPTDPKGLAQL

[2] = biological target: T7, P2X2 G353 threonine substitution (G353T) (Homo sapiens, UniProt Q9UBL9, G353T); assay: Site-saturation screen, fast kinetic assay in yeast, G353 threonine; type: cell-based; conditions: 500 μM ATP, ΔF/ΔT normalized to WT
T7 construct: expressed in transfected cells; host or cells: S. cerevisiae BY4741 background
Description: as §1, §2

T1 sequence (Q9UBL9 whole entry G353R): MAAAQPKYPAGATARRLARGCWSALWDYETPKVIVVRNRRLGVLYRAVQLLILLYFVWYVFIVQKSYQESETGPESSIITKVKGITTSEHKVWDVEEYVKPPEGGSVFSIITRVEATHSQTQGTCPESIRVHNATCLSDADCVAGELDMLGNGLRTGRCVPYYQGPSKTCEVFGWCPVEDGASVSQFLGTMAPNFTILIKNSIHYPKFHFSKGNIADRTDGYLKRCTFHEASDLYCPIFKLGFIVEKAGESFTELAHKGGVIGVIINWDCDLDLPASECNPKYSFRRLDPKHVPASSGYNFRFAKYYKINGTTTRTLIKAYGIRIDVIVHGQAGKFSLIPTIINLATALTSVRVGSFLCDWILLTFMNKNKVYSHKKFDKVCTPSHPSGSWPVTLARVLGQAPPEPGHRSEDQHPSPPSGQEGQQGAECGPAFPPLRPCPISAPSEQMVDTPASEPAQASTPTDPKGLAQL
T4 sequence (Q9UBL9 whole entry G353S): as the sequence (Q9UBL9 whole entry G353R) above, with R353S counted along it
T5 sequence (Q9UBL9 whole entry A304H, the tested form may be a part): as the sequence (Q9UBL9 whole entry G353R) above, with A304H, R353G counted along it
T2 sequence (Q9UBL9 whole entry A304F, the tested form may be a part): as the sequence (Q9UBL9 whole entry G353R) above, with A304F, R353G counted along it
T3 sequence (Q9UBL9 whole entry F303L, the tested form may be a part): as the sequence (Q9UBL9 whole entry G353R) above, with F303L, R353G counted along it
T7 sequence (Q9UBL9 whole entry G353T): as the sequence (Q9UBL9 whole entry G353R) above, with R353T counted along it

Compound: Nc1ncnc2c1ncn2[C@@H]1O[C@H](COP(=O)(O)OP(=O)(O)OP(=O)(O)O)[C@@H](O)[C@H]1O [ATP]
- function in the assay (P2X2 G353R): not observed to be functional
- signaling (P2X2 F301 mutants): None of the F301 mutants showed significant signaling
- signal, % of WT signaling (P2X2 A304F): 57 ± 2.6%
- signal, % of WT signaling (P2X2 F303L): 108 ± 89%
- signaling, % of WT activity [1]: 95%
- signal, % of WT signaling (P2X2 A304H): 27 ± 18%
- signal, % of WT signaling (P2X2 F303Y): 113 ± 45%
- signaling, % of WT activity [2]: 50%
